Tests used:
[1] = system: sciatic nerve; test: sciatic nerve block in rats (paw pinch, motor block); type: in vivo; settings: single bolus of about 0.4 milliliters at the sciatic nerve
Method: The microspheres of Example 1 were also tested for sciatic nerve block and for subcutaneous infiltration anesthesia in rats. Sciatic nerves were injected with nominal doses of microspheres of Example 1, having about 40 milligrams of bupivacaine, by injection as a single bolus of about 0.4 milliliters. […] Half-recovery of these respective functions occurred at about 42±6 hours and 36±3 hours, and normal, pre-block function was restored by about 63±8 hours for nociception and about 56±7 hours for motor block. By comparison, injection of about 0.4 milliliters of about 0.5% by weight aqueous bupivacaine solution gave complete blocks for only about 0.5 hours to about 1 hours for nociception and about 1 hour for motor functions, with complete recovery by about 3 hours for both functions.

[2] = system: post-operative hyperalgesia after paw incision; test: paw incision post-operative hyperalgesia, injection at the sciatic nerve; type: in vivo, rats; settings: nerve block before paw incision
Method: Microspheres of Example 1 were also tested for anti-hyperalgesic effects after rodent surgery. […] If microspheres of Example 1 were injected at the sciatic nerve approximately 1.5 hours before the surgery, the subsequent post-operative hyperalgesia was suppressed for about 4 days. In contrast, nerve block by 0.5% by weight aqueous bupivacaine solution suppressed post-operative hyperalgesia for about 6 hours. Microspheres of Example 2 were ineffective against post-incisional pain.

[3] = system: post-operative allodynia and hyperalgesia; test: incision and blunt dissection of the back skin, post-operative allodynia and hyperalgesia; type: in vivo, rats; settings: about 0.4 milliliters subcutaneous infiltration
Method: In a second surgical scenario, Microspheres of Example 1 were injected as a subcutaneous infiltration in the thoraco-lumbar region before an incision and blunt dissection of the back skin. Microspheres of Example 1, including about 40 milligrams of bupivacaine, were injected as a single bolus of about 0.4 milliliters. The injection produced anesthesia to VFH pokes at the injected area for about 6 hours and anesthesia to pin pricks for about 12 hours. Post-operative allodynia and hyperalgesia in this model lasted for about 14 days, but were suppressed for approximately 5 days and 3 days, respectively, by microspheres of Example 1 injected approximately 2 hours before surgery. About 0.4 milliliters of 0.5% by weight aqueous bupivacaine solution was ineffective in reducing post-operative hypersensitivity, just as the microspheres of Example 2 were also ineffective.

[4] = system: sciatic nerve; test: sciatic nerve block, latency for leg withdrawal from noxious heat; type: in vivo, male S-D rats; settings: about 0.6 milliliters next to the sciatic nerve; heat stimulus of about 56° C.
Method: The anti-nociceptive activity of EXPAREL® particles was also tested. The latency for leg withdrawal in male S-D rats from a noxious heat stimulus of about 56° C. applied to the plantar surface of the paw was used to test the duration of functional sciatic nerve block achieved using EXPAREL®. The normal latency for paw withdrawal was about 2 seconds and “maximal sensory blockade” was characterized by a latency of about 12 seconds. Sensory blockade of about 0.6 milliliters of EXPAREL® containing about 7.8 milligrams of bupivacaine, injected next to the sciatic nerve of an adult male S-D rat weighing from about 310 grams to about 420 grams, which was equivalent to about 25 milligrams of bupivacaine per kilogram, was determined by the time from injection until the latency returned to about 7 seconds, half way back to the pre-injection latency of about 2 seconds. By this criterion, the sensing block from EXPAREL® lasted about 240 minutes, and that from 0.6 milliliter solution of about 0.5% by weight bupivacaine, which was used as a control, lasted about 120 minutes.

In the case of CCCCN1CCCCC1C(=O)Nc1c(C)cccc1C (stereo not drawn) [bupivacaine], the “duration of complete motor block (total flaccid paralysis)” value [1] is reported as “about 1 hours”, the “time to normal, pre-block function (complete recovery), motor” value [1] is reported as “about 3 hours” and the “time to normal, pre-block function (complete recovery), nociception” value [1] is reported as “about 3 hours”. The “time for which post-operative hyperalgesia was suppressed” value [2] was “about 6 hours”, the “reduction of post-operative hypersensitivity” value [3] was “ineffective” and the “duration of sensory block (time until latency returned to about 7 seconds)” value [4] was “about 120 minutes”.
